Key:
[1] = target: T1, HIV integrase (Human immunodeficiency virus type 1 group M subtype B, UniProt P04585); assay: Strand transfer specific assay; type: biochemical; conditions: Table 8 cells marked (ST) / (ST assay): strand transfer specific
Procedure: (§1) A combined 3′-processing/strand transfer assay procedure similar to that published (Ovenden et al. Phytochemistry. 2004 December; 65(24):3255-9.) was used. This assay was adapted to a 96 well plate format. Briefly, 400 ng of […] is incubated with 30 nM substrate DNA, consisting of annealed U5 LTR sequence oligonucleotides tagged with Digoxigenin (DIG; 5′-[…]-DIG-3′) or biotin (5′-Bio-[…]-3′) so that each substrate has either a DIG or Bio tag on opposite strands. Reactions are carried out for 2 hrs at 37° C., products generated as a result of 3′processing and strand transfer activity are bound to streptavidin plates and detected with using anti-DIG-alkaline phosphatase conjugate and p-nitro phenyl phosphate substrate.
The strand transfer specific assay is of similar format to that of the 3′processing/strand transfer combined assay except that it uses a biotinylated substrate that represents a pre-processed LTR end (5′-Bio-[…]-3′).

[2] = target: T1, HIV integrase; assay: 3'processing/strand transfer combined assay; type: biochemical
Procedure: as §1

[3] = test system: HIV; assay: Inhibition of HIV replication (extracellular p24); type: cell-based; conditions: Human immunodeficiency virus 1; concentration inhibiting HIV p24 production to 50% of no drug controls
Procedure: Cells are seeded into 96 well microtitre plates at 50,000 cells per 50 ul per well in RF-10 containing 2 μg/mL polybrene (RF-10/2). Compounds are prepared to 4× final concentration in RF-10/2, and 30 μL added to cells. Virus (40 μL in RF-10/2 containing 1600 pfu) is added to each well or 40 μL RF-10/2 for negative controls and for assaying compound cytotoxicity. After 24 hrs, an additional 90 μL of media or media containing 1× compound is added to each well. At 4 days post infection, 100 μL of media is removed from each well and replaced with 100 μl of fresh media with or without compound. Forty eight hours later supernatants are harvested and levels of extracellular p24 determined. Supernatants are diluted 1 in 10,000 and p24 levels assayed using the Vironostika p24 assay kit. EC50 is calculated as the concentration required to inhibit HIV p24 production to 50% that of no drug controls.

[4] = Table 8 cells that name no assay, taken as the 3'processing/strand transfer combined assay, read-out: IC50

SMILES | IC50 [2, 4] | further results
CCOc1cnc(-c2cc(-c3ccc(N4CCOCC4)cc3)nc(OCc3sc(C(=O)O)cc3C#N)c2C#N)o1 [compound 15424] | – | IC50 [1]: < 10 µM
N#Cc1c(-c2ccoc2)cc(-c2ccc(N3CCOCC3)cc2)nc1OCc1nc(C(=O)O)cs1 [compound 14693] | < 10 µM | –
N#Cc1c(-c2ccoc2)cc(-c2ccc(N3CCOCC3)cc2)nc1OCc1c(C(=O)O)csc1Br [compound 14906] | < 10 µM | –
CCOc1cnc(-c2cc(-c3ccc(N4CCOCC4)cc3)nc(OCc3csc(C(=O)O)c3)c2C#N)o1 [compound 15044] | 10 to 50 µM | –
CCOc1cnc(-c2cc(-c3ccc(N4CCOCC4)cc3)nc(OCc3ccsc3C(=O)O)c2C#N)o1 [compound 14963] | 10 to 50 µM | –
Cc1cc(-c2cc(-c3ccc(N4CCOCC4)cc3)nc(OCc3ccc(C(=O)O)s3)c2C#N)on1 [compound 14959] | 10 to 50 µM | –
N#Cc1c(-c2ccoc2)cc(-c2ccc(N3CCOCC3)cc2)nc1OCc1ccc(C(=O)O)cc1 [compound 14353] | < 10 µM | –
CCOc1cnc(-c2cc(-c3ccc(N4CCOCC4)cc3)nc(OCc3ccc(C(=O)O)cc3Br)c2C#N)o1 [compound 15303] | – | IC50 [1]: < 10 µM
Cc1cc(-c2cc(-c3ccc(N4CCOCC4)cc3)nc(OCc3ccc(C(=O)O)cc3Br)c2C#N)on1 [compound 15300] | – | IC50 [1]: < 10 µM
N#Cc1cc(C(=O)O)sc1COc1nc(-c2ccc(N3CCOCC3)cc2)cc(-c2ccoc2)c1C#N [compound 14905] | < 10 µM | –
Cc1cc(-c2cc(-c3ccc(N4CCOCC4)cc3)nc(OCc3csc(C(=O)O)c3)c2C#N)on1 [compound 15045] | < 10 µM | –
N#Cc1c(-c2oncc2C(=O)O)cc(-c2ccc(N3CCOCC3)cc2)nc1OCc1ccc(C(=O)O)s1 [compound 15435] | – | IC50 [1]: < 10 µM
N#Cc1c(-c2ccoc2)cc(-c2ccc(N3CCOCC3)cc2)nc1OCc1nc(C(=O)O)co1 [compound 14761] | 10 to 50 µM | –
N#Cc1c(-c2ccoc2)cc(-c2ccc(N3CCOCC3)cc2)nc1OCc1ccc(C(=O)O)s1 [compound 14483] | – | EC50 [3]: < 10 µM; IC50 [2]: 10 to 50 µM
Cc1cc(C(=O)O)ccc1COc1nc(-c2ccc(N3CCOCC3)cc2)cc(-c2ccoc2)c1C#N [compound 14499] | < 10 µM | –

Reference: patent US20100009973A1, “Integrase Inhibitors 3” (AVEXA LIMITED, priority 2006, published 2010)
